“And” between values parts separate entries of the source, which are not always exact repeats. Equal values may be shown once. Where a name gives a salt, the structure may show the parent alone.
Columns and labels:
KRAS_WT and SOS1 = biological target: T1, KRAS_WT and SOS1 (Homo sapiens, UniProt P01116); test: Inhibition of KRAS_WT/SOS1 binding (Cisbio binding kit, 665/615 ratio), Effect Embodiment C; conditions: read-out: GTP-KRAS-WT:SOS1 IC50
T1 construct: purchased
Outline: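 Compounds tested as 3-fold, 11-point dilutions in duplicate at 1% DMSO final against the KRAS_WT/SOS1 binding system. IC50 derived by nonlinear regression fit.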

KRAS-G12D and SOS1 = biological target: T2, KRAS-G12D and SOS1 (Homo sapiens, UniProt P01116, G12D); test: Inhibition of KRAS-G12D/SOS1 binding (Cisbio binding kit, 665/615 ratio), Effect Embodiment A; conditions: read-out: GTP-KRAS-G12D:SOS1 IC50
T2 construct: purchased
T2 sequence (P01116 1-188 isoform P01116-2 G12D): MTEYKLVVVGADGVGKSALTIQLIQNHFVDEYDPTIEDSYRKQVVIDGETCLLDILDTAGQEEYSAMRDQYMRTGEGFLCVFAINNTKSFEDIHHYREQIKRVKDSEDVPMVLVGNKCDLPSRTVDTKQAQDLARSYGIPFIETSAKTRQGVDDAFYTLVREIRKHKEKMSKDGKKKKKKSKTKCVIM
Outline: (§1)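 Compounds underwent 3-fold dilution from their storage solutions (11 points), were transferred to assay wells in duplicate with DMSO held at 1% final, and were briefly centrifuged.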

KRAS_G12D and cRAF = biological target: T3, KRAS_G12D and cRAF (Homo sapiens, UniProt P01116, G12D); test: Inhibition of KRAS_G12D/cRAF binding (Cisbio binding kit, 665/615 ratio), Effect Embodiment B; conditions: read-out: GTP-KRAS-G12D:CRAF IC50
T3 construct: purchased
T3 sequence (P01116 1-188 isoform P01116-2 G12D): as above
Outline: as §1

T1 sequence (P01116 1-188 isoform P01116-2): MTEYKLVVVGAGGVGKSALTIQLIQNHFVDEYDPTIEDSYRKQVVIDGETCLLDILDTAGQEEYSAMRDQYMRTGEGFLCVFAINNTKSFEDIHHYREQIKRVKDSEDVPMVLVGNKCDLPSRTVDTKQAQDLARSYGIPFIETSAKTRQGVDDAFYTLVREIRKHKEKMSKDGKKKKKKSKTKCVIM

## CCc1cccc2cc(O)cc(-c3c(F)cc4c(N5CC6CCC(C5)N6)nc(OCCCN5CCOC[C@H]5C)nc4c3F)c12 (single isomer, unassigned) [Compound 282a, (S or R)-4-(4-((1R,5S)-3,8-diazacyclo[3.2.1]octan-3-yl)-6,8-difluoro-2-(3-((R)-3-methylmorpholinyl)propoxy)quinazolin-7-yl)-5-ethylnaphthalen-2-ol dihydrochloride]
KRAS_WT and SOS1
  IC50: 175 nM
KRAS-G12D and SOS1
  IC50: 16.5 nM
KRAS_G12D and cRAF
  IC50: 13.6 nM

## CCc1cccc2cc(O)cc(-c3c(F)cc4c(N5CC6CCC(C5)N6)nc(OCCCN5C[C@@H](C)O[C@@H](C)C5)nc4c3F)c12 (single isomer, unassigned) [Compound 283a, (S or R)-4-(4-((1R,5S)-3,8-diazacyclo[3.2.1]octan-3-yl)-2-(3-((2S,6R)-2,6-dimethylmorpholinylpropoxy)-6,8-difluoroquinazolin-7-yl)-5-ethylnaphthalen-2-oldihydrochloride]
KRAS_WT and SOS1
  IC50: 761 nM
KRAS-G12D and SOS1
  IC50: 15.8 nM
KRAS_G12D and cRAF
  IC50: 19.2 nM

## CCc1cccc2cc(O)cc(-c3c(F)cc4c(N5CC6CCC(C5)N6)nc(OC[C@H](C)CN5C6CCC5COC6)nc4c3F)c12 (single isomer, unassigned) [Compound 284a, (4S or 4R)-4-(2-((2R)-3-(3-oxa-8-azabicyclo[3.2.1]octan-8-yl)-2-methylpropoxy)-4-((1R,5S)-3,8-diazabicyclo[3.2.1]octan-3-yl)-6,8-difluoroquinazolin-7-yl)-5-ethylnaphthalen-2-ol dihydrochloride]
KRAS_WT and SOS1
  IC50: 251 nM
KRAS-G12D and SOS1
  IC50: 17.3 nM
KRAS_G12D and cRAF
  IC50: 11 nM

## CCc1cccc2cc(O)cc(-c3c(F)cc4c(N5CC6CCC(C5)N6)nc(OC[C@@]56CCCN5C[C@H](F)C6)nc4c3F)c12 (single isomer, unassigned) [Compound 285a, (S or R)-4-(4-((1R,5S)-3,8-diazacyclo[3.2.1]octan-3-yl)-6,8-difluoro-2-((2R,7aS)-2-fluorotetrahydro-1H-pyrrolidin-7a(5H-yl)methoxy)quinazolin-7-yl)-5-ethylnaphthalen-2-ol dihydrochloride]
KRAS_WT and SOS1
  IC50: 18.4 nM
KRAS-G12D and SOS1
  IC50: 16.6 nM
KRAS_G12D and cRAF
  IC50: 9.12 nM

## CCc1cccc2cc(O)cc(-c3c(F)cc4c(N5CC6CCC(C5)N6)nc(OC[C@H](C)CN5C6CCC5CC(OC)C6)nc4c3F)c12 (single isomer, unassigned) [Compound 286a, (S or R)-4-(4-((1R,5S)-3,8-diazabicyclo[3.2.1]octan-3-yl)-6,8-difluoro-2-((R)-3-((1R,3S,5S)-3-methoxy-8-azabicyclo[3.2.1]octan-8-yl)-2-methylpropoxy)quinazolin-7-yl)-5-ethylnaphthalen-2-o1 dihydrochloride]
KRAS_WT and SOS1
  IC50: 262 nM
KRAS-G12D and SOS1
  IC50: 13.5 nM
KRAS_G12D and cRAF
  IC50: 9.77 nM

## C=CCN1CCC[C@H]1COc1nc(N2CC3CCC(C2)N3)c2cc(F)c(-c3cc(O)cc4ccc(F)c(CC)c34)c(F)c2n1 (single isomer, unassigned) [Compound 287a, 4-((S or R)-2-((S)-1-allylpyrrolidin-2-yl)methoxy)-4-((1R,5S)-3,8-diazacyclo[3.2.1]octan-3-yl)-6,8-difluoroquinazolin-7-yl)-5-ethyl-6-fluoronaphthalen-2-ol dihydrochloride]
KRAS_WT and SOS1
  IC50: 29.1 nM
KRAS-G12D and SOS1
  IC50: 10.1 nM
KRAS_G12D and cRAF
  IC50: 11.3 nM

## CCc1c(F)ccc2cc(O)cc(-c3c(Cl)cc4c(N5CC6CCC(C5)N6)nc(OCCCN5C6CCC5COC6)nc4c3F)c12 (single isomer, unassigned) [compound 251]
KRAS_WT and SOS1
  IC50: 257 nM
KRAS-G12D and SOS1
  IC50: 27.6 nM
KRAS_G12D and cRAF
  IC50: 67.6 nM

## Oc1cc(-c2c(Cl)cc3c(N4CC5CCC(C4)N5)nc(OCCCN4C5CCC4COC5)nc3c2F)c2cc(F)ccc2c1 (single isomer, unassigned) [compound 252]
KRAS_WT and SOS1
  IC50: 414 nM
KRAS-G12D and SOS1
  IC50: 21.7 nM
KRAS_G12D and cRAF
  IC50: 48 nM

## Cn1cnc(Cn2ccc3ccc(CNCc4[nH]c5ccccc5c4[C@H]4NC(=O)c5ccc(O)cc54)cc32)c1 [BI-2852, reference compound]
KRAS_WT and SOS1
  IC50: 136 nM
KRAS-G12D and SOS1
  IC50: 238 nM
KRAS_G12D and cRAF
  IC50: 2700 nM

## CN(C)CCCOc1nc(N2C[C@H]3CC[C@@H](C2)N3)c2cnc(-c3cc(O)cc4ccccc34)c(F)c2n1 [Compound 82, 4-(4-((1R,5S)-3,8-diazabicyclo[3.2.1]octan-3-yl)-2-(3-(dimethylamino)propoxy)-8-fluoropyrido[4,3-d]pyrimidin-7-yl)naphthalen-2-ol]
KRAS_WT and SOS1
  IC50: 1560 nM
KRAS-G12D and SOS1
  IC50: 21.6 nM
KRAS_G12D and cRAF
  IC50: 102 nM

## CN1C[C@@H](F)C[C@H]1COc1nc(N2CC3CCC(C2)N3)c2cnc(-c3cc(O)cc4ccccc34)c(F)c2n1 [Compound 129, 4-(4-((1R,5S)-3,8-diazabicyclo[3.2.1]octan-3-yl)-8-fluoro-2-((2S,4S)-4-fluoro-1-methylpyrrolidin-2-yl)methoxy)pyridinyl[4.3-d]pyrimidin-7-yl)naphthalen-2-ol ditrifluoroacetate]
KRAS_WT and SOS1
  IC50: 2270 nM
KRAS-G12D and SOS1
  IC50: 42 nM
KRAS_G12D and cRAF
  IC50: 180 nM

## CN1C[C@H](F)C[C@H]1COc1nc(N2CC3CCC(C2)N3)c2cnc(-c3cc(O)cc4ccccc34)c(F)c2n1 [Compound 131]
KRAS_WT and SOS1
  IC50: 222 nM
KRAS-G12D and SOS1
  IC50: 20.9 nM
KRAS_G12D and cRAF
  IC50: 37 nM

## C[C@H]1C[C@@H](COc2nc(N3CC4CCC(C3)N4)c3cnc(-c4cc(O)cc5ccccc45)c(F)c3n2)N(C)C1 [Compound 133, 4-(4-((1R,5S)-3.8-diazabicyclo[3.2.1]octan-3-yl)-2-((2S,4S)-1,4-dimethylpyrrolidin-2-yl)methoxy)-8-fluoropyridinyl[4,3-d]pyrimidin-7-yl)naphthalen-2-ol trifluoroacetate]
KRAS_WT and SOS1
  IC50: 85.4 nM
KRAS-G12D and SOS1
  IC50: 19.3 nM
KRAS_G12D and cRAF
  IC50: 18.7 nM

## CO[C@@H]1C[C@@H](COc2nc(N3CC4CCC(C3)N4)c3cnc(-c4cc(O)cc5ccccc45)c(F)c3n2)N(C)C1 [Compound 134, 4-(4-((1R,5S)-3,8-diazabicyclo[3.2.1]octan-3-yl)-8-fluoro-2-((2S,4R)-4-methxoy-1-methylpyrrolidin-2-yl)methoxy)pyridinyl[4,3-d]pyrimidin-7-yl)naphthalen-2-ol diformate]
KRAS_WT and SOS1
  IC50: 498 nM
KRAS-G12D and SOS1
  IC50: 17.9 nM
KRAS_G12D and cRAF
  IC50: 26.2 nM

## CN1CCC[C@@]1(C)COc1nc(N2CC3CCC(C2)N3)c2cnc(-c3cc(O)cc4ccccc34)c(F)c2n1 [Compound 136, 4-(4-((1R,5S)-3,8-diazabicyclo[3.2.1]octan-3-yl)-2-((S)-1,2-methylpyrrolidin-2-yl)methoxy)-8-fluoropyridinyl[4,3-d]pyrimidin-7-yl)naphthalen-2-ol diformate]
KRAS_WT and SOS1
  IC50: 1160 nM
KRAS-G12D and SOS1
  IC50: 30.7 nM
KRAS_G12D and cRAF
  IC50: 67.5 nM

## CN1CC2(CC2)C[C@H]1COc1nc(N2CC3CCC(C2)N3)c2cnc(-c3cc(O)cc4ccccc34)c(F)c2n1 [Compound 137, 4-(4-((1R,5S)-3,8-diazabicyclo[3.2.1]octan-3-yl)-8-fluoro-2-((S)-5-methyl-5-azaspiro[2.4]heptan-6-yl)methoxy)pyridin[4,3-d]pyrimidin-7-yl)naphthalen-2-ol diformate]
KRAS_WT and SOS1
  IC50: 123 nM
KRAS-G12D and SOS1
  IC50: 13.3 nM
KRAS_G12D and cRAF
  IC50: 10.7 nM

## CN1CC(C)(C)C[C@H]1COc1nc(N2CC3CCC(C2)N3)c2cnc(-c3cc(O)cc4ccccc34)c(F)c2n1 [Compound 139, 4-(4-((1R,5S)-3,8-diazabicyclo[3.2.1]octan-3-yl)-8-fluoro-2-((S)-1,4,4-trimethylpyrrolidin-2-yl)methoxy)pyridinyl[4,3-d]pyrimidin-7-yl)naphthalen-2-ol diformate]
KRAS_WT and SOS1
  IC50: 1920 nM
KRAS-G12D and SOS1
  IC50: 37.2 nM
KRAS_G12D and cRAF
  IC50: 129 nM

## CN1C[C@@H]2C[C@@H]2[C@H]1COc1nc(N2CC3CCC(C2)N3)c2cnc(-c3cc(O)cc4ccccc34)c(F)c2n1 [Compound 140, 4-(4-((1R,5S)-3,8-diazabicyclo[3.2.1]octan-3-yl)-8-fluoro-2-((1S,2S,5R)-3-methyl-3-azabicyclo[3.1.0]hexan-2-yl)methoxy)pyridin[4,3-d]pyrimidin-7-yl)naphthalen-2-ol dihydrochloride]
KRAS_WT and SOS1
  IC50: 1360 nM
KRAS-G12D and SOS1
  IC50: 32.8 nM
KRAS_G12D and cRAF
  IC50: 95.7 nM

## C[C@@H]1C[C@@H](COc2nc(N3CC4CCC(C3)N4)c3cnc(-c4cc(O)cc5ccccc45)c(F)c3n2)N(C)C1 [Compound 142, 4-(4-((1R,5S)-3,8-diazabicyclo[3.2.1]octan-3-yl)-2-((2S,4R)-1,4-methylpyrrolidin-2-yl)methoxy)-8-fluoropyridinyl[4,3-d]pyrimidin-7-yl)naphthalen-2-ol diformate]
KRAS_WT and SOS1
  IC50: 394 nM
KRAS-G12D and SOS1
  IC50: 16 nM
KRAS_G12D and cRAF
  IC50: 30.5 nM

## CN(C)CCCOc1nc(N2C[C@H]3CC[C@@H](C2)N3)c2ccc(-c3cc(O)cc4ccccc34)c(F)c2n1 [Compound 143, 4-(4-((1R,5S)-3,8-diazabicyclo[3.2.1]octan-3-yl)-2-(3-(dimethylamino)propoxy)-8-fluoroquinazolin-7-yl)naphthalen-2-ol]
KRAS_WT and SOS1
  IC50: 765 nM
KRAS-G12D and SOS1
  IC50: 16.7 nM and 21.2 nM
KRAS_G12D and cRAF
  IC50: 47.7 nM

## CN1CCC[C@H]1COc1nc(N2C[C@H]3CC[C@@H](C2)N3)c2ccc(-c3cc(O)cc4ccccc34)c(F)c2n1 [Compound 144, 4-(4-((1R,5S)-3,8-diazabicyclo[3.2.1]octan-3-yl)-8-fluoro-2-((S)-1-methylpyrrolidin-2-yl)methoxy)quinazolin-7-yl)naphthalen-2-ol tritrifluoroacetate]
KRAS_WT and SOS1
  IC50: 180 nM
KRAS-G12D and SOS1
  IC50: 14.4 nM
KRAS_G12D and cRAF
  IC50: 17.9 nM

## CN1CCC[C@H]1COc1nc(N2C[C@H]3C=C[C@@H](C2)N3)c2cnc(-c3cc(O)cc4ccccc34)c(F)c2n1 [Compound 159, 4-(4-((1R,5S)-3,8-diazabicyclo[3.2.1]oct-6-en-3-yl)-8-fluoro-2-(((S)-1-methylpyrrolidin-2-yl)methoxy)pyrido[4,3-d]pyrimidin-7-yl)naphthalen-2-ol diformate]
KRAS_WT and SOS1
  IC50: 196 nM
KRAS-G12D and SOS1
  IC50: 30.8 nM
KRAS_G12D and cRAF
  IC50: 55.2 nM
